One test deals with Leukotriene B4 receptor (Homo sapiens, UniProt Q9NPC1+Q15722). The experiment in a line: Inhibition of specific binding of [3H]LTB4 to LTB4 receptor in human neutrophils. The class given is protein assay.
Test [1] deals with Leukotriene B4 receptor (Cavia porcellus). The experiment in a line: Inhibition of specific binding of [3H]-LTB4 to LTB4 receptor in guinea pig lung membranes.
A further test is filed under the species Homo sapiens. In words: The compound was evaluated for its ability to inhibit LTB4-induced chemotaxis of human neutrophils. The class given is functional.

For eight molecules, IC50 and Ki results are on record in ChEMBL document CHEMBL1127113, “Diaryl ether/carboxylic acid derivatives of LY255283: Receptor antagonists of leukotriene B4” (Bioorg Med Chem Lett, 1993).

Usually IC50 stands for the concentration that gives 50% inhibition. Higher therefore signals a need for much substance. The Ki is a measure of affinity in units of concentration, obtained from inhibition or displacement. Low readings indicate a stronger hold on the target, high ones a looser hold on the target. On Leukotriene B4 receptor, `CCc1cc(C(C)=O)c(O)cc1OCCCOc1ccc(Oc2ccc(C(=O)[O-])cc2)cc1.[Na+]` had an IC50 of 190 nM. In test [1], this molecule came in with a Ki of 90 nM.

For `CCc1cc(C(C)=O)c(O)cc1OCCCOc1cccc(Oc2cccc(C(=O)[O-])c2)c1.[Na+]`, the IC50 on Leukotriene B4 receptor is 460 nM. The molecule further had a Ki in test [1] of 140 nM.

On to `CCCc1cc(Oc2ccc(C(=O)[O-])cc2)ccc1OCCCOc1cc(O)c(C(C)=O)cc1CC.[Na+]`, for which the IC50 at Leukotriene B4 receptor amounted to 330 nM. Also, the Ki in test [1] is listed as 1200 nM.

With `CCCc1c(OCCCOc2cc(O)c(C(C)=O)cc2CC)cccc1Oc1ccccc1C(=O)[O-].[Na+]`, the figures for the IC50 at Leukotriene B4 receptor and in the test filed under Homo sapiens were 24 nM and 790 nM, respectively. The molecule also had a Ki in test [1] of 39 nM.

At Leukotriene B4 receptor, `CCCc1cc(Oc2cccc(C(=O)[O-])c2)ccc1OCCCOc1cc(O)c(C(C)=O)cc1CC.[Na+]` came in with an IC50 of 160 nM. Moreover, in test [1], the Ki was determined as 256 nM.

`CCCc1c(OCCCOc2cc(O)c(C(C)=O)cc2CC)cccc1OCc1ccccc1C(=O)[O-].[Na+]`: the IC50 at Leukotriene B4 receptor was found to be 130 nM; in the test filed under Homo sapiens, 1200 nM. In test [1], this molecule displayed a Ki of 244 nM.

On to `CCCc1c(OCCCCOc2cc(O)c(C(C)=O)cc2CC)cccc1Oc1ccccc1C(=O)[O-].[Na+]`, for which the IC50 at Leukotriene B4 receptor is 94 nM; in the test filed under Homo sapiens, 3100 nM. For the same molecule, in test [1], the Ki is reported as 59 nM.

Regarding `CCc1cc(C(C)=O)c(O)cc1OCCCOc1cccc(Oc2ccccc2C(=O)[O-])c1.[Na+]`, at Leukotriene B4 receptor, the IC50 was 290 nM. This molecule also returned a Ki in test [1] of 130 nM.
